Reference: patent US20240173332A1, “BENZO[…] TREATING OR PREVENTING RESPIRATORY SYNCYTIAL VIRUS INFECTION” (Pfizer Inc., priority 2021, published 2024)
Counter-ions that a name gives are not always drawn. Like-named read-outs stand apart in the source and are kept apart here.

Columns and labels:
RSV A2 = test: RSV plaque reduction assay in Hep-G2 cells; type: cell-based, respiratory syncytial virus (RSV); details: human respiratory syncytial virus, HepG2, 48 h, mean of at least two experiments
Protocol: Compounds were subjected to RSV plaque reduction assays according to the following protocol. Plaque EC50 and cell toxicity CC50 values are a mean of at least two experiments and figures are rounded to whole units.
Hep-G2 cells (ECACC, 85011430) were passaged in flasks and seeded in 24-well plates in DMEM containing antibiotics and supplemented with 10% FBS. During inoculation and subsequent incubation, cells were cultured in DMEM containing 2% FBS. 100 plaque forming unit/well of RSV (RSV A2 ECACC, 0709161v) was mixed with eight serial dilutions of compound. Subsequently, 100 μL of the virus/compound mixtures was added to confluent Hep-G2 cell monolayers. The cells and virus/compound mixtures were incubated at 37° C. in a humidified 5% CO2 incubator for 2 h prior to removal of the inoculum and addition of 1 mL of overlay (DMEM containing 2% FBS and 0.8% CMC) containing compound dilutions. The cells and were incubated at 37° C. in a humidified 5% CO2 incubator for 2 days.
Cells were washed with PBS before adding 75/25% v/v EtOH/MeOH, for 3 min. Fixative was removed and plates were washed with PBS. A pre-titrated amount of the primary antibody was added in 200 μL PBS/2% milk powder, and plates incubated for 90 min at 37° C. The plates were washed 3 times with PBS/0.05% Tween20 before addition of rabbit anti-goat horse radish peroxidase in 200 μL PBS/2% milk powder, and incubated for 1 h at 37° C. Following three wash steps with PBS/0.05% Tween20, 200 μL ready-to-use TrueBlue was added and plates were incubated at rt for 10-15 min before washing with water. After removal of water, plates were air-dried in the dark. Plates were scanned and analysed using the Immunospot S6 Macro analyser, which is equipped with BioSpot analysis software for counting immunostained plaques (virospots). Plaque counts were used to calculate % infection relative to the mean of the plaque count in the virus control wells for RSV. The EC50 value was calculated as 50% reduction in signal, respectively, by interpolation of inhibition curves fitted with a 4-parameter nonlinear regression with a variable slope in Dotmatics. Plaque EC50 and cell toxicity CC50 values are a mean of at least two experiments and figures are rounded to whole units.

Cell cytotoxicity CC50 = type: cell-based; details: human, Hep-G2 cells; mean of at least two experiments unless (n = 1)
[1] = Hep-G2 cells, RSV A2, 2 days, read-out: RSV A2 Plaque EC50

With `CC(O)c1ccc(-c2nn3cccnc3c2C(=O)N[C@H]2N=C(c3ccccc3)c3cccc(F)c3NC2=O)c(F)c1` (stereo partly drawn) [Example 17, 2-[2-Fluoro-4-(1-hydroxyethyl)phenyl]-N-[(3S)-9-fluoro-2-oxo-5-phenyl-1,3-dihydro-1,4-benzodiazepin-3-yl]pyrazolo[1,5-a]pyrimidine-3-carboxamide] the EC50 (RSV A2; [1]) was 6.9 nM and the CC50 (Cell cytotoxicity CC50) was > 25000 nM.

With `O=C(N[C@H]1N=C(c2ccccc2)c2ccccc2NC1=O)c1c(-c2ccc(CCO)cc2F)nn2cccnc12` [Example 21, 2-[2-Fluoro-4-(2-hydroxyethyl)phenyl]-N-[(3S)-2-oxo-5-phenyl-1,3-dihydro-1,4-benzodiazepin-3-yl]pyrazolo[1,5-a]pyrimidine-3-carboxamide] the EC50 (RSV A2; [1]) was 42 nM and the CC50 (Cell cytotoxicity CC50) was > 25000 nM.

With `O=C(N[C@H]1N=C(c2ccccc2)c2cccc(F)c2NC1=O)c1c(-c2cc(CO)ccc2F)nn2cccnc12` [Example 10, 2-[2-Fluoro-5-(hydroxymethyl)phenyl]-N-[(3S)-9-fluoro-2-oxo-5-phenyl-1,3-dihydro-1,4-benzodiazepin-3-yl]pyrazolo[1,5-a]pyrimidine-3-carboxamide] the EC50 (RSV A2; [1]) was 25 nM and the CC50 (Cell cytotoxicity CC50) was > 20200 nM.

For `NC(=O)c1ccc(-c2nn3cccnc3c2C(=O)N[C@H]2N=C(c3ccccc3)c3cccc(F)c3NC2=O)c(F)c1` [Example 27, 2-(4-Carbamoyl-2-fluorophenyl)-N-[(3S)-9-fluoro-2-oxo-5-phenyl-1,3-dihydro-1,4-benzodiazepin-3-yl]pyrazolo[1,5-a]pyrimidine-3-carboxamide], the EC50 (RSV A2; [1]) was 49 nM and the CC50 (Cell cytotoxicity CC50) was > 25000 nM.

For `CCS(=O)(=O)c1ccc(-c2nn3cccnc3c2C(=O)N[C@H]2N=C(c3ccccc3)c3cccc(F)c3NC2=O)c(F)c1` [Example 23, 2-(4-Ethylsulfonyl-2-fluorophenyl)-N-[(3S)-9-fluoro-2-oxo-5-phenyl-1,3-dihydro-1,4-benzodiazepin-3-yl]pyrazolo[1,5-a]pyrimidine-3-carboxamide], the EC50 (RSV A2; [1]) was 3 nM and the CC50 (Cell cytotoxicity CC50) was > 25000 nM.

For `CC(C)(O)Cc1ccc(-c2nn3cccnc3c2C(=O)N[C@H]2N=C(c3ccccc3)c3ccccc3NC2=O)c(F)c1` [Example 15, 2-[2-Fluoro-4-(2-hydroxy-2-methylpropyl)phenyl]-N-[(3S)-2-oxo-5-phenyl-1,3-dihydro-1,4-benzodiazepin-3-yl]pyrazolo[1,5-a]pyrimidine-3-carboxamide], the EC50 (RSV A2; [1]) was 32 nM and the CC50 (Cell cytotoxicity CC50) was > 25000 nM.

In the case of `CN(C)S(=O)(=O)c1ccc(-c2nn3cccnc3c2C(=O)N[C@H]2N=C(c3ccccc3)c3cccc(F)c3NC2=O)c(F)c1` [Example 25, 2-[4-(Dimethylsulfamoyl)-2-fluorophenyl]-N-[(3S)-9-fluoro-2-oxo-5-phenyl-1,3-dihydro-1,4-benzodiazepin-3-yl]pyrazolo[1,5-a]pyrimidine-3-carboxamide], the EC50 (RSV A2; [1]) is reported as 1.2 nM and the CC50 (Cell cytotoxicity CC50) is reported as > 25000 nM.

In the case of `CC(C)[C@H](N)C(=O)OCc1ccc(-c2nn3cccnc3c2C(=O)N[C@H]2N=C(c3ccccc3)c3ccccc3NC2=O)c(F)c1` [Example 30, [3-Fluoro-4-(3-{[(3S)-2-oxo-5-phenyl-1,3-dihydro-1,4-benzodiazepin-3-yl]carbamoyl}pyrazolo[1,5-a]pyrimidin-2-yl)phenyl]methyl (2S)-2-amino-3-methylbutanoate hydrochloride], the EC50 (RSV A2; [1]) is reported as 44 nM and the CC50 (Cell cytotoxicity CC50) is reported as > 25000 nM.

With `O=C(N[C@H]1N=C(c2ccccc2)c2ccccc2NC1=O)c1c(-c2ccc(O)cc2F)nn2cccnc12` [Example 11, 2-(2-Fluoro-4-hydroxyphenyl)-N-[(3S)-2-oxo-5-phenyl-1,3-dihydro-1,4-benzodiazepin-3-yl]pyrazolo[1,5-a]pyrimidine-3-carboxamide] the EC50 (RSV A2; [1]) was 47 nM and the CC50 (Cell cytotoxicity CC50) was > 25000 nM.

With `CC(O)c1ccc(-c2nn3cccnc3c2C(=O)N[C@H]2N=C(c3ccccc3)c3cccc(F)c3NC2=O)c(F)c1` (single isomer, unassigned) [Example 17-1, 2-[2-Fluoro-4-[(1S*)-1-hydroxyethyl]phenyl]-N-[(3S)-9-fluoro-2-oxo-5-phenyl-1,3-dihydro-1,4-benzodiazepin-3-yl]pyrazolo[1,5-a]pyrimidine-3-carboxamide] the EC50 (RSV A2; [1]) was 5.5 nM and the CC50 (Cell cytotoxicity CC50) was > 2500 nM.

For `O=C(N[C@H]1N=C(c2ccccc2)c2ccccc2NC1=O)c1c(-c2cc(CO)ccc2F)nn2cccnc12` [Example 9, 2-[2-Fluoro-5-(hydroxymethyl)phenyl]-N-[(3S)-2-oxo-5-phenyl-1,3-dihydro-1,4-benzodiazepin-3-yl]pyrazolo[1,5-a]pyrimidine-3-carboxamide], the EC50 (RSV A2; [1]) was 60 nM and the CC50 (Cell cytotoxicity CC50) was > 25000 nM.

In the case of `CC(O)c1ccc(-c2nn3cccnc3c2C(=O)N[C@H]2N=C(c3ccccc3)c3ccccc3NC2=O)c(F)c1` (stereo partly drawn) [Example 16, 2-[2-Fluoro-4-(1-hydroxyethyl)phenyl]-N-[(3S)-2-oxo-5-phenyl-1,3-dihydro-1,4-benzodiazepin-3-yl]pyrazolo[1,5-a]pyrimidine-3-carboxamide], the EC50 (RSV A2; [1]) is reported as 7.6 nM and the CC50 (Cell cytotoxicity CC50) is reported as > 25000 nM.

In the case of `NS(=O)(=O)c1ccc(-c2nn3cccnc3c2C(=O)N[C@H]2N=C(c3ccccc3)c3cccc(F)c3NC2=O)c(F)c1` [Example 24, N-[(3S)-9-Fluoro-2-oxo-5-phenyl-1,3-dihydro-1,4-benzodiazepin-3-yl]-2-(2-fluoro-4-sulfamoylphenyl)pyrazolo[1,5-a]pyrimidine-3-carboxamide], the EC50 (RSV A2; [1]) is reported as 49 nM and the CC50 (Cell cytotoxicity CC50) is reported as > 25000 nM.

With `O=C(N[C@H]1N=C(c2ccccc2)c2cccc(F)c2NC1=O)c1c(-c2ccc(CCO)cc2F)nn2cccnc12` [Example 22, 2-[2-Fluoro-4-(2-hydroxyethyl)phenyl]-N-[(3S)-9-fluoro-2-oxo-5-phenyl-1,3-dihydro-1,4-benzodiazepin-3-yl]pyrazolo[1,5-a]pyrimidine-3-carboxamide] the EC50 (RSV A2; [1]) was 25 nM and the CC50 (Cell cytotoxicity CC50) was > 25000 nM.

For `CS(=O)(=O)c1ccc(-c2nn3cccnc3c2C(=O)N[C@H]2N=C(c3ccccc3)c3ccccc3NC2=O)c(F)c1` [Example 8, 2-(2-Fluoro-4-methylsulfonylphenyl)-N-[(3S)-2-oxo-5-phenyl-1,3-dihydro-1,4-benzodiazepin-3-yl]pyrazolo[1,5-a]pyrimidine-3-carboxamide], the EC50 (RSV A2; [1]) was 13 nM and the CC50 (Cell cytotoxicity CC50) was > 25000 nM.

For `CC(C)(O)Cc1ccc(-c2nn3cccnc3c2C(=O)N[C@H]2N=C(c3ccccc3)c3cccc(F)c3NC2=O)c(F)c1` [Example 14, 2-[2-Fluoro-4-(2-hydroxy-2-methylpropyl)phenyl]-N-[(3S)-9-fluoro-2-oxo-5-phenyl-1,3-dihydro-1,4-benzodiazepin-3-yl]pyrazolo[1,5-a]pyrimidine-3-carboxamide], the EC50 (RSV A2; [1]) was 20 nM and the CC50 (Cell cytotoxicity CC50) was > 25000 nM.

In the case of `CS(=O)(=O)c1ccc(F)c(-c2nn3cccnc3c2C(=O)N[C@H]2N=C(c3ccccc3)c3cccc(F)c3NC2=O)c1` [Example 26, 2-(2-Fluoro-5-methylsulfonylphenyl)-N-[(3S)-9-fluoro-2-oxo-5-phenyl-1,3-dihydro-1,4-benzodiazepin-3-yl]pyrazolo[1,5-a]pyrimidine-3-carboxamide], the EC50 (RSV A2; [1]) is reported as 61 nM and the CC50 (Cell cytotoxicity CC50) is reported as > 25000 nM.

In the case of `CC(C)(O)c1ccc(-c2nn3cccnc3c2C(=O)N[C@H]2N=C(c3ccccc3)c3ccccc3NC2=O)c(F)c1` [Example 20, 2-[2-Fluoro-4-(2-hydroxypropan-2-yl)phenyl]-N-[(3S)-2-oxo-5-phenyl-1,3-dihydro-1,4-benzodiazepin-3-yl]pyrazolo[1,5-a]pyrimidine-3-carboxamide], the EC50 (RSV A2; [1]) is reported as 8.7 nM and the CC50 (Cell cytotoxicity CC50) is reported as > 25000 nM.

In the case of `CC(C)n1cc(-c2nn3cccnc3c2C(=O)N[C@H]2N=C(c3ccccc3)c3ccccc3NC2=O)cn1` [Example 5, N-[(3S)-2-oxo-5-phenyl-1,3-dihydro-1,4-benzodiazepin-3-yl]-2-(1-propan-2-ylpyrazol-4-yl)pyrazolo[1,5-a]pyrimidine-3-carboxamide], the EC50 (RSV A2; [1]) is reported as 66 nM and the CC50 (Cell cytotoxicity CC50) is reported as > 25000 nM.

With `O=C(N[C@H]1N=C(c2ccccc2)c2cccc(F)c2NC1=O)c1c(-c2ccc(O)cc2F)nn2cccnc12` [Example 12, 2-(2-Fluoro-4-hydroxyphenyl)-N-[(3S)-9-fluoro-2-oxo-5-phenyl-1,3-dihydro-1,4-benzodiazepin-3-yl]pyrazolo[1,5-a]pyrimidine-3-carboxamide] the EC50 (RSV A2; [1]) was 16 nM and the CC50 (Cell cytotoxicity CC50) was > 25000 nM.

With `CC(O)c1ccc(-c2nn3cccnc3c2C(=O)N[C@H]2N=C(c3ccccc3)c3ccccc3NC2=O)c(F)c1` (single isomer, unassigned) [Example 16-1, 2-[2-Fluoro-4-[(1S*)-1-hydroxyethyl]phenyl]-N-[(3S)-2-oxo-5-phenyl-1,3-dihydro-1,4-benzodiazepin-3-yl]pyrazolo[1,5-a]pyrimidine-3-carboxamide] the EC50 (RSV A2; read-out: RSV A2 Plaque EC50, Hep-G2 cells, RSV A2, 2 days) was 8.2 nM and the CC50 (Cell cytotoxicity CC50) was > 2500 nM.
